Consider one molecule from paper PMC5007978, “A chemical with proven clinical safety rescues Down-syndrome-related phenotypes in through DYRK1A inhibition” (Disease Models & Mechanisms, 2016).

One data set has as its target T1, DYRK4 (Homo sapiens, UniProt Q9NR20).
T1 construct: purchased Life Technologies (Kinase Profiler service)
T1 sequence (Q9NR20 1-520): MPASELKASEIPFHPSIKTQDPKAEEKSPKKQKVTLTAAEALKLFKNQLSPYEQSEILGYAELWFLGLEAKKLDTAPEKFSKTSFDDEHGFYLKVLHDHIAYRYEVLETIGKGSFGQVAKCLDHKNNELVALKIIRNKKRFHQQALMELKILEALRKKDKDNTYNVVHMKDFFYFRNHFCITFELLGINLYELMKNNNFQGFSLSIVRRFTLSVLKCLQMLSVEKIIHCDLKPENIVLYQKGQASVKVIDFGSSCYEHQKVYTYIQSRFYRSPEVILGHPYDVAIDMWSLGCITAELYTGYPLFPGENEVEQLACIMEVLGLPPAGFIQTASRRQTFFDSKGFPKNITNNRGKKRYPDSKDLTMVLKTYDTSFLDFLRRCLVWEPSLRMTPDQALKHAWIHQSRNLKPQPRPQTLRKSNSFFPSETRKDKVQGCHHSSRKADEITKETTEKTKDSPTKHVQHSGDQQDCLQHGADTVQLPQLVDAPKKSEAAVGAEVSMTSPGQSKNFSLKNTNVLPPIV
As to the kind of experiment: In vitro kinase assay, recombinant human DYRK4 (Life Technologies). In kind it is biochemical.

In a further data set the test system is DYRK1A. Put plainly: Tau phosphorylation (T212) in the hippocampus of DYRK1A transgenic mouse after oral administration. In kind it is in vivo. The protocol: This mouse model has 50% higher expression of DYRK1A compared with a normal mouse, and increased Tau phosphorylation at T212 in the hippocampus has been well documented ([Ryoo et al., 2007]). Indeed, this phenomenon was also confirmed in our experiment.
Fig. 7. […] (A) Hippocampuses from normal and DYRK1A-overexpressing C57BL/6 mice (n=5 for each) were harvested, and the phosphorylation of Tau was analyzed by western blotting with anti-phosphorylated-Tau (at residue T212; p-Tau) and anti-Tau antibodies. α-Tubulin was also analyzed as a loading control. (B) The phosphorylated and total Tau proteins in panel A were quantified, and the mean amount of each protein was calculated. […] Total cell lysates were prepared and subjected to western blotting with the indicated antibodies. α-Tubulin was also analyzed as a loading control. (D) The phosphorylated and total Tau proteins in panel C were quantified, and the mean amount of each protein across the animals was calculated. Relative ratios of phosphorylated Tau to total Tau were calculated by setting the value from DYRK1A mice that had been treated with DMSO as 100%. […]
DYRK1A transgenic mice with three copies of the human DYRK1A gene were maintained as described previously ([Ahn et al., 2006]). […] The protein concentration was determined using the Bradford protein assay (Bio-Rad). […]

The subject of data set [1] is calcineurin-NFAT signaling. Put plainly: NFAT-RE promoter luciferase reporter assay (NRE-Luc) in 293T cells. In kind it is cell-based. To be noted: IM and PMA (10 nM), 1, 3 and 10 μM. The protocol: Fig. 5. […] Firefly luciferase activities were measured using One-Glo reagents. Luciferase activity in the sample with reporter plasmid alone was set to 1, and the relative luciferase activities were calculated. Means±s.d. were determined from two independent experiments.
Treatment with IM and phorbol 12-myristate 13-acetate (PMA) induced a dramatic increase in luciferase activity (∼20 fold) as a result of the nuclear translocation of NFATc1 and the subsequent transcriptional activation (Fig. 5B). In this situation, the overexpression of DYRK1A suppressed the stimulatory effect of IM and PMA by 75%, resulting in a 4.5-fold increase in luciferase activity compared with that of the control (Fig. 5B).
The firefly luciferase reporter assay was performed using a One-Glo Assay System (Promega) according to the manufacturer's instructions. The transcriptional activity of NFATc1 in 293T cells was measured with a reporter vector (pGL4.30 luc2P/NFAT-RE/Hygro) (Promega) that expresses the firefly luciferase gene under the control of an NFAT-RE promoter. 293T cells were transfected with the DYRK1A-expressing plasmid and reporter plasmid. On the next day, cells were treated with IM (2.5 μM) and phorbol-12-myristate-13-acetate (10 nM) along with the indicated amounts of inhibitors. Cells were further incubated for 8 h and then cell lysates were harvested to measure luciferase activity.
On the technique in general: In a reporter assay the amount or activity of a reporter protein is the signal.

A further data set addresses T2, DYRK3 (Homo sapiens, UniProt O43781).
T2 construct: purchased Life Technologies (Kinase Profiler service)
T2 sequence (O43781 1-588): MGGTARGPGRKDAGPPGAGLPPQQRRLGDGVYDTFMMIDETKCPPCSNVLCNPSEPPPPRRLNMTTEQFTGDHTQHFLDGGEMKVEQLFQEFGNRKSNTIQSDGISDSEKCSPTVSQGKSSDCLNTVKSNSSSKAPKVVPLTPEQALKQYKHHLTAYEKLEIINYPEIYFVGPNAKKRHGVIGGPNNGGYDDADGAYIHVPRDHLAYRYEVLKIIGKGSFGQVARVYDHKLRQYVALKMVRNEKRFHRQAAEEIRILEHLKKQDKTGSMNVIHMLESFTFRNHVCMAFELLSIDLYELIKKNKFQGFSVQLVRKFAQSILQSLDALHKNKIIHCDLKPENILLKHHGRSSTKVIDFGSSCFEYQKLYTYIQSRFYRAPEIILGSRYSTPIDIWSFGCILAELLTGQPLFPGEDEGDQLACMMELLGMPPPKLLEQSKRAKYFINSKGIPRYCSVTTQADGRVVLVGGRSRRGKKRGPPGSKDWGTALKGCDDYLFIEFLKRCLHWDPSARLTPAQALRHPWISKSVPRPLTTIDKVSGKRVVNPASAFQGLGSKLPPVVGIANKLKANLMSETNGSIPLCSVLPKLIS
As to the kind of experiment: In vitro kinase assay, recombinant human DYRK3 (Life Technologies). In kind it is biochemical.

In the case of `O=C(O)c1ccc2c(c1)nc(Nc1cccc(Cl)c1)c1ccncc12` [CX-4945], the IC50 (as a rule, the concentration at which inhibition is half-maximal) amounted to 1500 nM at DYRK4 and 18 nM at DYRK3. In the data set with DYRK1A (DYRK1A-overexpressing C57BL/6 mice, 75 mg/kg oral, 30 min), the “phosphorylation of Tau (T212) in hippocampus” value is listed as “remarkably decreased”. Further, the blood-brain barrier penetration entry in the data set with DYRK1A (inferred from hippocampal Tau phosphorylation after oral 75 mg/kg) is “efficiently penetrates the blood-brain barrier”. In data set [1], the “NFATc1-dependent transcriptional activation (NRE-Luc) suppressed by DYRK1A overexpression” value is “reversed the effect of DYRK1A overexpression in a dose-dependent manner”.
